Values of other authors, collected in patent US7569547B2, “Inhibiting furin with polybasic peptides” (Board of Supervisors of Louisiana State University and …, priority 2001, dated 2009).
No end group written: not given here.

Experiments:
furin [1] = target: T1, furin (Homo sapiens, UniProt P09958); details: Lu et al. 1993; cited from earlier work
PC7 = target: T2, PC7 (Homo sapiens, UniProt Q16549); details: Zhong et al. 1999; read-out: Ki against PC7; cited from earlier work
T2 sequence (Q16549 142-785): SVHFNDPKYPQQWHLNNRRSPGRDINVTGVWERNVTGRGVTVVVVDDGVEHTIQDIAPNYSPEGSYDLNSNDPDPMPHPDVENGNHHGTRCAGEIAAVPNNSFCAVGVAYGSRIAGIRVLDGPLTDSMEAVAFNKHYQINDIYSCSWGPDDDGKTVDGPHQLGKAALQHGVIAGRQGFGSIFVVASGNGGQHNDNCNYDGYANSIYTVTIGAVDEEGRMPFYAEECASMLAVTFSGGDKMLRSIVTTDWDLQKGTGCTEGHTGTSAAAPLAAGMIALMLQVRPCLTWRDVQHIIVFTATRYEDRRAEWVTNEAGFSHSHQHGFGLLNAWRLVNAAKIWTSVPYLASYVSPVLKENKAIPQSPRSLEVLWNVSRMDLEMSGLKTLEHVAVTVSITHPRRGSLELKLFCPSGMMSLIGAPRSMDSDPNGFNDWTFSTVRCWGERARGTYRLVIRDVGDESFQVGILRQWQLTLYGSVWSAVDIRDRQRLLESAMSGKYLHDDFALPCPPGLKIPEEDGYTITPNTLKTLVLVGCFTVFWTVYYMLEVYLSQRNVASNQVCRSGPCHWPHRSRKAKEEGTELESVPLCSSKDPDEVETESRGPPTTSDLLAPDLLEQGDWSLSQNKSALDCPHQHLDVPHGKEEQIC

furin [2] = target: T1, furin; details: literature; read-out: Ki against furin; cited from earlier work

T1 sequence (P09958 108-794): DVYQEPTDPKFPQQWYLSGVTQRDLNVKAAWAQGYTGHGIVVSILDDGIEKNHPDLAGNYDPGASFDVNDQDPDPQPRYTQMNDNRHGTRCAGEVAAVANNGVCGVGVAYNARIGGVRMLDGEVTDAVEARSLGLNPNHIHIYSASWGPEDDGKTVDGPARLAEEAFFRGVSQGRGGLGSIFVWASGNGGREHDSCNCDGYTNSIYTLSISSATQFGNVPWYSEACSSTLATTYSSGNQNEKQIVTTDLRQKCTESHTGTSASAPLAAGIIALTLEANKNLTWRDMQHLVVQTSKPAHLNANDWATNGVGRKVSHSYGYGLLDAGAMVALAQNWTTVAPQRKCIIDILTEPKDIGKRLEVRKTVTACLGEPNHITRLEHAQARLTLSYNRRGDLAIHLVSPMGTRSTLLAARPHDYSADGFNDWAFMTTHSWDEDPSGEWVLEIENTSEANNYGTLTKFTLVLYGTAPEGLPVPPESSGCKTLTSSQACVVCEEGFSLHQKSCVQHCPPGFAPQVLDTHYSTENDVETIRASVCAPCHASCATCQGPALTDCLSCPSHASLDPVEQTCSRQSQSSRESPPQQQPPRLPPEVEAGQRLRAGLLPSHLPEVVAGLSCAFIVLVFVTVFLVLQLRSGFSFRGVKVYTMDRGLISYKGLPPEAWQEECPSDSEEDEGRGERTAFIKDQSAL

Substance	equilibrium constant (furin [1]) [M⁻¹]	Ki (PC7) [nM]	Ki (furin [2]) [nM]
Arg^15-Lys^17-Arg^18 turkey ovomucoid third domain: third domain of turkey ovomucoid engineered (KPACTLE^19→KPRCKRE^19) to increase specificity towards furin (not fully specified; ends and bridges not checked)	1.1e+07	–	–
EQRLLKRAKR	–	6	80
QQVAKRRTKR	–	~500	–
